The target in test [1] is Interleukin-1 receptor-associated kinase 1 (Homo sapiens) (UniProt P51617). Nature of the test: Inhibition of recombinant human GST-tagged IRAK1 catalytic domain (194 to 712 residues) expressed in baculovirus expression system at 0.1 uM using Histone H3 (1-20) peptide as substrate incubated for 60 mins by Adapta assay relative to control.
Test [2] addresses Serine/threonine-protein kinase Chk1 (Homo sapiens) (UniProt O14757). Briefly: Inhibition of recombinant full length human His-tagged CHK1 expressed in baculovirus expression system at 0.1 uM using serine/threonine-19 peptide as substrate incubated for 60 mins by Z'-LYTE assay relative to control.
Test [3] deals with Cyclin-dependent kinase 13/Cyclin-K (Homo sapiens) (UniProt Q14004+O75909). Briefly: Inhibition of tracer 236 binding to human GST/His-tagged CDK13/Cyclin K at 0.1 uM. Format: protein-complex assay.
In test [4] the target is Rho-associated protein kinase 2 (Homo sapiens) (UniProt O75116). Nature of the test: Inhibition of recombinant human GST-tagged ROCK2 catalytic domain (1 to 552 residues) expressed in baculovirus expression system at 0.1 uM using serine/threonine-13 peptide as substrate incubated for 60 mins by Z'-LYTE assay relative to control.
Test [5] deals with Megakaryocyte-associated tyrosine-protein kinase (Homo sapiens) (UniProt P42679). Nature of the test: Inhibition of recombinant full length human His-tagged HYL expressed in Escherichia coli expression system at 0.1 uM using tyrosine-1 peptide as substrate incubated for 60 mins by Z'-LYTE assay relative to control.
Test [6] concerns the target Serine/threonine-protein kinase WNK2 (Homo sapiens) (UniProt Q9Y3S1). Briefly: Inhibition of tracer 1710 binding to recombinant human His-tagged WNK2 catalytic domain (166 to 489 residues) expressed in baculovirus expression system at 0.1 uM measured after 60 mins by Lanthascreen assay relative to control.
The target in test [7] is G protein-coupled receptor kinase 3 (Homo sapiens) (UniProt P35626). Nature of the test: Inhibition of recombinant full length human GST-tagged GRK3 expressed in baculovirus expression system at 0.1 uM using serine/threonine-16 peptide as substrate incubated for 60 mins by Z'-LYTE assay relative to control.
For test [8], the target named is Serine/threonine-protein kinase TBK1 (Homo sapiens) (UniProt Q9UHD2). Nature of the test: Inhibition of recombinant full length human GST-tagged TBK1 expressed in insect expression system at 0.1 uM using serine/threonine-5 peptide as substrate incubated for 60 mins by Z'-LYTE assay relative to control.
Chain of Serine/threonine-protein kinase TBK1 (Homo sapiens) (Q9UHD2 whole entry, the tested form may be a part): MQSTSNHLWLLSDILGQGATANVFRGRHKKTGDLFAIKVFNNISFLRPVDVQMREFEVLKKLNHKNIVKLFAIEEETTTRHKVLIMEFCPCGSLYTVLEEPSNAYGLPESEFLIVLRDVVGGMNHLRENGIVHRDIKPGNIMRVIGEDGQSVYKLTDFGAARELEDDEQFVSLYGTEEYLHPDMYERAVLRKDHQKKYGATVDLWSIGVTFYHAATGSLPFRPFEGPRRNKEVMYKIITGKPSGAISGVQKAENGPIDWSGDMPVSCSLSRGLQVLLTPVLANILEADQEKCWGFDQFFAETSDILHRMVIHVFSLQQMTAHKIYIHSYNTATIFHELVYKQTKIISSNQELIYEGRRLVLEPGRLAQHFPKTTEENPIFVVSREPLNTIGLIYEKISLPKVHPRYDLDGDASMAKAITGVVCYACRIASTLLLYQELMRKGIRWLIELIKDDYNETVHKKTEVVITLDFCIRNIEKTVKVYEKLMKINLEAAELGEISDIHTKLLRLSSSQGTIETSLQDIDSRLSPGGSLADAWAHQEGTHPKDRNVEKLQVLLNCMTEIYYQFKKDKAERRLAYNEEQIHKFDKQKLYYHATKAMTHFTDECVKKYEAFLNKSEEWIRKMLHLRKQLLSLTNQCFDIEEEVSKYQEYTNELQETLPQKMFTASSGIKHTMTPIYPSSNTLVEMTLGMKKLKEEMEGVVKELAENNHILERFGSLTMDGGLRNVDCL
For test [9], the target named is Ephrin type-B receptor 3 (Homo sapiens) (UniProt P54753). Briefly: Inhibition of recombinant human GST-tagged EPHB3 catalytic domain (623 to 907 residues) expressed in baculovirus expression system at 0.1 uM using tyrosine-2 peptide as substrate incubated for 60 mins by Z'-LYTE assay relative to control.
Test [10] deals with Tyrosine-protein kinase SYK (Homo sapiens) (UniProt P43405). Briefly: Inhibition of recombinant full length human GST-tagged SYK expressed in baculovirus expression system at 0.1 uM using tyrosine-2 peptide as substrate incubated for 60 mins by Z'-LYTE assay relative to control.
Test [11] concerns the target Fibroblast growth factor receptor 1 (Homo sapiens) (UniProt P11362). Nature of the test: Inhibition of recombinant human His-tagged FGFR1 catalytic domain (308 to 731 residues) expressed in baculovirus expression system at 0.1 uM using tyrosine-4 peptide as substrate incubated for 60 mins by Z'-LYTE assay relative to control.
Test [12] deals with Death-associated protein kinase 3 (Homo sapiens) (UniProt O43293). Briefly: Inhibition of recombinant full length human GST-tagged ZIPK expressed in baculovirus expression system at 0.1 uM using serine/threonine-13 peptide as substrate incubated for 60 mins by Z'-LYTE assay relative to control.
Test [13] has as its target Cytoplasmic tyrosine-protein kinase BMX (Homo sapiens) (UniProt P51813). Nature of the test: Inhibition of recombinant full length human His-tagged BMX expressed in baculovirus expression system at 0.1 uM using tyrosine-1 peptide as substrate incubated for 60 mins by Z'-LYTE assay relative to control.
The target in test [14] is Ribosomal protein S6 kinase beta-1 (Homo sapiens) (UniProt P23443). Briefly: Inhibition of recombinant human GST-tagged p70S6K catalytic domain (1 to 421 residues) expressed in baculovirus expression system at 0.1 uM using serine/threonine-7 peptide as substrate incubated for 60 mins by Z'-LYTE assay relative to control.
Test [15] addresses Tyrosine-protein kinase Lck (Homo sapiens) (UniProt P06239). Briefly: Inhibition of recombinant full length human His-tagged LCK expressed in baculovirus expression system at 0.1 uM using tyrosine-2 peptide as substrate incubated for 60 mins by Z'-LYTE assay relative to control.
The target of test [16] is G protein-coupled receptor kinase 6 (Homo sapiens) (UniProt P43250). Nature of the test: Inhibition of recombinant full length human GST-tagged GRK6 expressed in baculovirus expression system at 0.1 uM using serine/threonine-16 peptide as substrate incubated for 60 mins by Z'-LYTE assay relative to control.
For test [17], the target named is Inhibitor of nuclear factor kappa-B kinase subunit alpha (Homo sapiens) (UniProt O15111). Briefly: Inhibition of recombinant full length human His-tagged IKKalpha expressed in baculovirus expression system at 0.1 uM incubated for 60 mins by Adapta assay relative to control.
Test [18] has as its target Calcium/calmodulin-dependent protein kinase type II subunit beta (Homo sapiens) (UniProt Q13554). Briefly: Inhibition of recombinant full length human His-tagged CAMK2beta expressed in baculovirus expression system at 0.1 uM using serine/threonine-17 peptide as substrate incubated for 60 mins by Z'-LYTE assay relative to control.
In test [19] the target is Casein kinase I isoform alpha (Homo sapiens) (UniProt P48729). Briefly: Inhibition of recombinant full length human GST-tagged CK1alpha1 expressed in baculovirus expression system at 0.1 uM using serine/threonine-11 peptide as substrate incubated for 60 mins by Z'-LYTE assay relative to control.
Chain of Casein kinase I isoform alpha (Homo sapiens) (P48729 2-337 limits assumed): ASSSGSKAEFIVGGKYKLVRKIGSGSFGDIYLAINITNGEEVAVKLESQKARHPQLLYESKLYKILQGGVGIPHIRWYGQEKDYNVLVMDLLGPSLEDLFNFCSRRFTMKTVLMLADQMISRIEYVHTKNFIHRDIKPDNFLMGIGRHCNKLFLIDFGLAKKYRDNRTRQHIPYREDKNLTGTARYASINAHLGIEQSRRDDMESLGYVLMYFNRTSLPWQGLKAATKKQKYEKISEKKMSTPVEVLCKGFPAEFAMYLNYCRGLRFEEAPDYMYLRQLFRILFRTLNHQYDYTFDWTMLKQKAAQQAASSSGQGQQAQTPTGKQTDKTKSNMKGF
In test [20] the target is Activin receptor type-1 (Homo sapiens) (UniProt Q04771). Nature of the test: Inhibition of tracer 236 binding to recombinant human GST-tagged ALK2 catalytic domain (145 to 509 residues) expressed in baculovirus at 0.1 uM measured after 60 mins by Lanthascreen assay relative to control.
In test [21] the target is Serine/threonine-protein kinase D1 (Homo sapiens) (UniProt Q15139). Briefly: Inhibition of recombinant full length human GST-tagged PKD1 expressed in baculovirus expression system at 0.1 uM using serine/threonine-17 peptide as substrate incubated for 60 mins by Z'-LYTE assay relative to control.
Chain of Serine/threonine-protein kinase D1 (Homo sapiens) (Q15139 whole entry): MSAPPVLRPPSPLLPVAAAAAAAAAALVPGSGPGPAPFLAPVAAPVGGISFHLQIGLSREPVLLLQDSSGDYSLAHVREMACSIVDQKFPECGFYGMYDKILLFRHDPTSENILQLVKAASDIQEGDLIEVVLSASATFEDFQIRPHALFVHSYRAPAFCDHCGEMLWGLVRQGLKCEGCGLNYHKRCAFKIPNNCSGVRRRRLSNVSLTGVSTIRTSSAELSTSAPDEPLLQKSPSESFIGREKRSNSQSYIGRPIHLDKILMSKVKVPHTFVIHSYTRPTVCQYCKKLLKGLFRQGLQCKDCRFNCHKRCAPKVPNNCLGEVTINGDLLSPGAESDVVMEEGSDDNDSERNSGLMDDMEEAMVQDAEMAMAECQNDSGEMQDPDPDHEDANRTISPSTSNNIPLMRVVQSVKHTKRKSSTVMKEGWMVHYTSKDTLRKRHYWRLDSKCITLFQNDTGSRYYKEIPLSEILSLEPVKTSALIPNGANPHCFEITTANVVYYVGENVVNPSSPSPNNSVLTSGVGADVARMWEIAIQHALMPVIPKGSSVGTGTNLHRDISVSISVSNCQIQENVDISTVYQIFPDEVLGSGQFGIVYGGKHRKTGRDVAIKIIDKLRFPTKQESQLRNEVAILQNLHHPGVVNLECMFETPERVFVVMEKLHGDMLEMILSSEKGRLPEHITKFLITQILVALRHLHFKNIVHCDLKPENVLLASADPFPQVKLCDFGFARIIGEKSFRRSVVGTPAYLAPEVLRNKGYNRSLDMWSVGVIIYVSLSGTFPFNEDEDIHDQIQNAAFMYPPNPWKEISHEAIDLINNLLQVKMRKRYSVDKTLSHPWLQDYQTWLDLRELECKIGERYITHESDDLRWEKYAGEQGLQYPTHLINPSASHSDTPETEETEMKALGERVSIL
In test [22] the target is Serine/threonine-protein kinase PAK 1 (Homo sapiens) (UniProt Q13153). Briefly: Inhibition of recombinant full length human GST-tagged PAK1 expressed in baculovirus expression system at 0.1 uM using serine/threonine-19 peptide as substrate incubated for 60 mins by Z'-LYTE assay relative to control.
Test [23] deals with Serine/threonine-protein kinase Nek4 (Homo sapiens) (UniProt P51957). Briefly: Inhibition of recombinant full length human GST-tagged NEK4 expressed in baculovirus expression system at 0.1 uM using serine/threonine-17 peptide as substrate incubated for 60 mins by Z'-LYTE assay relative to control.

Chain of Serine/threonine-protein kinase WNK2 (Homo sapiens) (Q9Y3S1 whole entry, the tested form may be a part): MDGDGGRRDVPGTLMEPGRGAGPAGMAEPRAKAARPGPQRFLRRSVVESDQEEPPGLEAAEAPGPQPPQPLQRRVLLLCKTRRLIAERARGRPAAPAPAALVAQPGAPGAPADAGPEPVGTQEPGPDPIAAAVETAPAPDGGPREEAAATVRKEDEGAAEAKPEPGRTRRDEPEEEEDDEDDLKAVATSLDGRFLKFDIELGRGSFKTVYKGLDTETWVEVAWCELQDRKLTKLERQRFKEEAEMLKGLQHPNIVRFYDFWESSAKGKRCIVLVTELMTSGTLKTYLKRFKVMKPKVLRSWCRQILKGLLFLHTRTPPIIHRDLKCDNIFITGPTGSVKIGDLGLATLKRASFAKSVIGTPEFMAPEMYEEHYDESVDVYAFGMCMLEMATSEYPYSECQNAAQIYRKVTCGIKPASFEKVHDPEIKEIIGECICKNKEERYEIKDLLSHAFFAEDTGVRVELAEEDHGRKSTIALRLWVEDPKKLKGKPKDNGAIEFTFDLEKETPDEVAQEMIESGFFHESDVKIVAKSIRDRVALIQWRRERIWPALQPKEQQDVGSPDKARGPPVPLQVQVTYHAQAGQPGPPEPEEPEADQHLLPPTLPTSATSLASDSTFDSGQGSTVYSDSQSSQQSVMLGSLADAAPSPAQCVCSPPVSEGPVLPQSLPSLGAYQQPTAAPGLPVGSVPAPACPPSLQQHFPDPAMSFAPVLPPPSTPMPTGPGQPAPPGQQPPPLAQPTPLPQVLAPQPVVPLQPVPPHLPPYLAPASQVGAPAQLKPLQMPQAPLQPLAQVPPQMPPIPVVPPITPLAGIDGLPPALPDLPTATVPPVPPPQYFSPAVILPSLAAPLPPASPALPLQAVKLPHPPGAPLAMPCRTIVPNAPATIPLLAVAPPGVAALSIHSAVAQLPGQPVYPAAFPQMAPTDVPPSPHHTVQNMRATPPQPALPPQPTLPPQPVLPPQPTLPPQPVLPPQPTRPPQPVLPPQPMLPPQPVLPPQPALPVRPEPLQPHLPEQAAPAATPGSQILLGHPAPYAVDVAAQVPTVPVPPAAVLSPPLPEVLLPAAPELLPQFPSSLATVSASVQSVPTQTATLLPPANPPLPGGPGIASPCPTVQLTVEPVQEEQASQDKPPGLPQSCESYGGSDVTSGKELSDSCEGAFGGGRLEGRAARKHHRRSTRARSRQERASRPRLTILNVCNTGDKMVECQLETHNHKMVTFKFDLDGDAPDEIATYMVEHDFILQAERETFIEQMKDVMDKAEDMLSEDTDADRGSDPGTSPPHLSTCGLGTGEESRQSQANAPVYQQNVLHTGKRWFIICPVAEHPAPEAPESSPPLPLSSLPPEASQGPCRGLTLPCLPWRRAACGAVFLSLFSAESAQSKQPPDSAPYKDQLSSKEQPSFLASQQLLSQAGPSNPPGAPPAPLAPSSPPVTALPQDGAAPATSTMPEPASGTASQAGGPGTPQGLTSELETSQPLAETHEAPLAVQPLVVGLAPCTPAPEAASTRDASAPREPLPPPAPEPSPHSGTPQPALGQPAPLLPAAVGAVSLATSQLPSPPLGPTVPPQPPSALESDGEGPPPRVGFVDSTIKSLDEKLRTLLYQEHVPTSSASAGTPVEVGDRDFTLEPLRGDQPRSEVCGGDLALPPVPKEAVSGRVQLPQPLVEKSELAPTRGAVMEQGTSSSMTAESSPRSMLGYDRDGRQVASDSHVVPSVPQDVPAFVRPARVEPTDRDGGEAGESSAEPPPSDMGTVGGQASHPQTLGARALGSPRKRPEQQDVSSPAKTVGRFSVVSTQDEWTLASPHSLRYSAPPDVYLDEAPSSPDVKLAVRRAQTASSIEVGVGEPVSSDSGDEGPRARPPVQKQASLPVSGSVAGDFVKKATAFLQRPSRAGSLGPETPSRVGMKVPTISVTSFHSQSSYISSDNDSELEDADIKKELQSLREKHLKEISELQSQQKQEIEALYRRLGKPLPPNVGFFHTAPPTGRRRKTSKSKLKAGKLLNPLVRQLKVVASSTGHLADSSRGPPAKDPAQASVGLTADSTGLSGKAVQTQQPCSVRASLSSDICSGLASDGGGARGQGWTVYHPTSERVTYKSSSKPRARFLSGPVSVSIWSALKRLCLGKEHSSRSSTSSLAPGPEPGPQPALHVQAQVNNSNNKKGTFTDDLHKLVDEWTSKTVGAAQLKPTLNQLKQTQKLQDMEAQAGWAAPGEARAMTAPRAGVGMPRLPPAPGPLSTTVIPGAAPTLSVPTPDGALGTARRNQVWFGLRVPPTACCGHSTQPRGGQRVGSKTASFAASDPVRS
Chain of Fibroblast growth factor receptor 1 (Homo sapiens) (P11362 22-822 limits assumed): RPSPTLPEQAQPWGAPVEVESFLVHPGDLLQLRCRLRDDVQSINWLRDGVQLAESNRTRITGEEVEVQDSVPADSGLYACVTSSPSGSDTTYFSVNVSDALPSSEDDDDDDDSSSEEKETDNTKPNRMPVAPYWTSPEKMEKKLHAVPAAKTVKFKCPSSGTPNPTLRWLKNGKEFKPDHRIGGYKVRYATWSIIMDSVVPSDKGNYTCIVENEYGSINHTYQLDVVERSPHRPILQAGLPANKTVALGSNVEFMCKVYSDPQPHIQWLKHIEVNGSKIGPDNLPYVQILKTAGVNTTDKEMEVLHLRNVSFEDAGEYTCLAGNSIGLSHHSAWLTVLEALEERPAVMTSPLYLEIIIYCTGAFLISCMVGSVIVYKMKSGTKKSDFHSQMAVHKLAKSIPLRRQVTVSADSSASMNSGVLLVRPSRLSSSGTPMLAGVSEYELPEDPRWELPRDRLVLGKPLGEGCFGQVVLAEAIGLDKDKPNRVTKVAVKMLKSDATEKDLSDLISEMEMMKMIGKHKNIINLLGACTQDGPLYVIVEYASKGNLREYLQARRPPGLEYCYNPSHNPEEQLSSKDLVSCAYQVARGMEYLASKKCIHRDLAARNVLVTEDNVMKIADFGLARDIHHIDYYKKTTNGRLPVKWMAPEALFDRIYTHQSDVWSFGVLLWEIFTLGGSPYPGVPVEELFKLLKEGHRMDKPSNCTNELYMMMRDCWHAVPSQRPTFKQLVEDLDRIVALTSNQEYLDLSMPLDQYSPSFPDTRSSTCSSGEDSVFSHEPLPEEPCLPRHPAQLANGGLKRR

`CCN1CCN(Cc2ccc(Nc3ncc(F)c(-c4cc(F)c5nc(C)n(C(C)C)c5c4)n3)nc2)CC1` [ABEMACICLIB]: the inhibition is 99.8% in test [1]; -4.5% in test [2]; 38% in test [3]; 18.5% in test [4]; 0% in test [5]; 2.7% in test [6]. In addition, the inhibition is 0.5% in test [7]; 43% in test [8]; -0.5% in test [9]; 6% in [10]; -0.4% in test [11]; 54.5% in test [12]. In addition, the inhibition in test [13] was determined as 5.5%; in test [14], 5%; in test [15] it was 12.5%; in test [16] it was 6%; in test [17] it was 53.1%; in test [18], 88%. Also, the inhibition amounted to 4.5% in [19]; 30.5% in test [20]; 62.5% in [21]; 3.5% in test [22]; 42.5% in test [23].
For the compound `CCN1CC2(C1)CN(c1ccc(Nc3ncc(F)c(-c4cnn5c4[C@H](C)CCCC5)n3)nc1)C2`, the inhibition in test [1] was 48.5%; in test [2], 9%; in test [3] it was 50%; in test [4], 7%; in test [5], -0.5%; in test [6], 0.5%. Further, the inhibition in test [7] is 0%; in test [8], 8%; in test [9], 1%; in test [10], -3%; in test [11], -4%; in test [12], 6%. The inhibition is -2% in [13]; 6% in test [14]; 3.5% in test [15]; 2.5% in [16]; -2% in [17]; 20.5% in [18]. In addition, the inhibition in test [19] is 1.5%; in [20], 28%; in test [21] it was 98.5%; in test [22] it was 15.5%; in [23], 3.5%.

The values above are taken from ChEMBL document CHEMBL4385643, “Design of a brain-penetrant CDK4/6 inhibitor for glioblastoma” (Bioorg Med Chem Lett, 2019).
